Measured values: patent US8426194B2, “Methods and agents for screening for compounds capable of modulating VEGF expression” (PTC Therapeutics, Inc., priority 2003, dated 2013)

System: VEGF UTRs
Assay: Luciferase reporter inhibition in B9 (VEGF UTRs) versus B12 (no VEGF UTRs) cell lines
Type: cell-based, human
Conditions: B9 with VEGF 5'- and 3'-UTRs, B12 without
Protocol: A monocistronic reporter construct (pLuc/vegf5′+3′UTR) is under the transcriptional control of the CMV promoter and contains a VEGF IRES driving the luciferase reporter, which nucleic acid sequences are both upstream of a VEGF 3′-UTR. Stable cell lines are generated by transfecting 293 cells with the pLuc/vegf5′+3′UTR. A stable cell line is cultured under hygromycin B selection to create clonal cell lines consistent with protocols well known in the art. After two weeks of selection, clonal cell lines are screened for luciferase activity. The luciferase activity of several clonal cell lines (hereafter “clones”) are compared and normalized against total protein content. Clones are maintained under hygromycin B selection for more than three months with intermittent monitoring of luciferase activity. Clones are stable and maintain a high level of luciferase expression. Many clones, for example, about twenty, may be compared to each other with respect to luciferase activity. […] Particular parameters for clones are studied prior to selection for use in post-transcriptional, high-throughput screening (PTHTS). Relevant parameters for PTHTS include, but are not limited to, cell number, incubation time, DMSO concentration, and volume of substrate. The B9 cell line harbors the firefly luciferase reporter driven by the CMV promoter and flanked by the 5′- and 3′-UTRs of VEGF transcripts. […]

COc1ccc(C[C@H](N)C(=O)N[C@H]2[C@@H](O)[C@H](n3cnc4c(N(C)C)ncnc43)O[C@@H]2CO)cc1 [puromycin]
UTR specificity: luciferase inhibition in B9 versus B12 cell lines: does not change the difference of inhibition in luciferase expression in these two cell lines
